Converted amounts (≈) assume the structure as drawn. Read-outs that look alike come from different tables or passages of the source. Starred links: 1 amine or outer side, 2 acyl side, 3 side chain; linkers in the order of their positions; H or OH if unused. Positions of bridges follow the written chain, without caps; N, C: chain ends. Residues, ends and D or L forms follow the SMILES beside them. *: point of attachment. C20 diacid = O=C(O)CCCCCCCCCCCCCCCCCCC(=O)*; C18 diacid = O=C(O)CCCCCCCCCCCCCCCCC(=O)*; γGlu = O=C(O)[C@H](CCC(=O)[*:2])N[*:1]
Key:
[1] = molecular target: T1, human calcitonin receptor (Homo sapiens, UniProt P30988); experiment: Assay (II)a functional CRE-luciferase assay, human calcitonin receptor; assay type: cell-based; details: Table 7; human calcitonin (CTa) receptor
T1 construct: expressed in transfected cells; host or cells: BHK570
T1 sequence (P30988 25-474): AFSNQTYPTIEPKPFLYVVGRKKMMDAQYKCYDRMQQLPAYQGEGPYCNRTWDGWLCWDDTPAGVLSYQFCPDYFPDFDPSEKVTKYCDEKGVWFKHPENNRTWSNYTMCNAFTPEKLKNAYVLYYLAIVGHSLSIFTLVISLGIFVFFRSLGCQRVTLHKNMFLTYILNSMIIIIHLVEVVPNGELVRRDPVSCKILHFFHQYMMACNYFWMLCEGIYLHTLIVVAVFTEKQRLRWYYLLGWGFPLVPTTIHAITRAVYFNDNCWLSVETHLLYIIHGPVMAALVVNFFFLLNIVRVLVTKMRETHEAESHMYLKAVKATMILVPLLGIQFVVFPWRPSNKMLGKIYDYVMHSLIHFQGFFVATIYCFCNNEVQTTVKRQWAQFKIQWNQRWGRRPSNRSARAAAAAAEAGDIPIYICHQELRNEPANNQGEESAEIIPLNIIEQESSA

[2] = Assay (IV) determination of solubility; assay type: physicochemical
Procedure, shortened: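 Solubility was profiled across pH 3.0–8.0 after 18 hours at room temperature: a ~500 nmol/ml aqueous polypeptide solution was diluted 1:1 into 100 mM glycylglycine or bistrispropane buffers. After centrifugation, HPLC gave the dissolved concentration.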

[3] = Assay (III) ThT fibrillation assay for physical stability; assay type: physicochemical; details: ThT fibrillation assay
Procedure, shortened: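 Freshly prepared formulations, pH-adjusted, with 1 μM ThT; four or eight replicates incubated at 37 °C under 960 rpm orbital shaking. Fluorescence (ex 444/em 485 nm) read every 20 min; […]. Peptide concentration measured by RP-HPLC before and after the run.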

[4] = molecular target: T2, human amylin receptor (amylin 3(a) receptor: human calcitonin receptor + RAMP-3) (Homo sapiens, UniProt O60896+P30988); experiment: Assay (II)a functional CRE-luciferase assay, human amylin receptor; assay type: cell-based; details: Table 2; BHK amylin 3(a)-receptor/CRE-luc cells
T2 construct: expressed in transfected cells; host or cells: BHK570
T2 sequence (P30988 25-474): T1 sequence (P30988 25-474)
T2 sequence (O60896 24-148 partner): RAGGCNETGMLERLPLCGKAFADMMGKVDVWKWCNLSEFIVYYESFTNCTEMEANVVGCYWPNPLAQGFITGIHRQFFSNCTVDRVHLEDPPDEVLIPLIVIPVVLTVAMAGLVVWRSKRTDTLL

[5] = bistrispropane buffer, pH 6, pH 6.0, read-out: Solubility pH 6.0
[6] = bistrispropane buffer, pH 7, pH 7.0, read-out: Solubility pH 7.0
[7] = bistrispropane buffer, pH 7.5, pH 7.5, read-out: Solubility pH 7.5
[8] = bistrispropane buffer, pH 8, pH 8.0, read-out: Solubility pH 8.0
[9] = glycylglycine buffer, pH 3, pH 3.0, read-out: Solubility pH 3.0
[10] = glycylglycine buffer, pH 4, pH 4.0, 18 hours at room temperature, Table 2, read-out: Solubility pH 4.0
[11] = glycylglycine buffer, pH 4, pH 4.0, read-out: Solubility pH 4.0
[12] = glycylglycine buffer, pH 5, pH 5.0, read-out: Solubility pH 5.0
[13] = bistrispropane buffer, pH 6.5, pH 6.5, read-out: Solubility pH 6.5
[14] = bistrispropane buffer, pH 7, pH 7.0, 18 hours at room temperature, Table 3, read-out: Solubility pH 7.0

Row | SMILES | EC50 [1] | solubility at 18 h [2, 5] | solubility at 18 h [2, 6] | solubility at 18 h [2, 7] | solubility at 18 h [2, 8] | solubility at 18 h [2, 9] | solubility at 18 h [2, 10] | solubility at 18 h [2, 11] | solubility at 18 h [2, 12] | ThT pH 4.0 lag time (h) [3] | EC50 [4] | solubility at 18 h [2, 13] | solubility at 18 h [2, 14]
1 | CC[C@H](C)[C@H](NC(=O)[C@@H]1CCCN1C(=O)CNC(=O)[C@H](Cc1ccccc1)NC(=O)[C@H](CC(N)=O)NC(=O)[C@H](CC(N)=O)NC(=O)[C@H](CO)NC(=O)[C@H](CO)NC(=O)[C@H](Cc1c[nH]cn1)NC(=O)[C@@H](NC(=O)[C@H](CC(C)C)NC(=O)[C@H](Cc1ccccc1)NC(=O)[C@H](CCC(=O)O)NC(=O)[C@H](C)NC(=O)[C@H](CC(C)C)NC(=O)[C@H](CCCNC(=N)N)NC(=O)[C@H](CCC(N)=O)NC(=O)[C@@H](NC(=O)[C@H](C)NC(=O)[C@@H]1CSSC[C@H](NC(=O)[C@H](Cc2c[nH]cn2)NC(=O)[C@H](Cc2c[nH]cn2)NC(=O)[C@H](Cc2c[nH]cn2)NC(=O)CC[C@H](NC(=O)CCCCCCCCCCCCCCCCCCC(=O)O)C(=O)O)C(=O)N[C@@H](CC(N)=O)C(=O)N[C@@H]([C@@H](C)O)C(=O)N[C@@H](C)C(=O)N[C@@H]([C@@H](C)O)C(=O)N1)[C@@H](C)O)C(C)C)C(=O)N[C@@H](CC(C)C)C(=O)N1CCC[C@H]1C(=O)N1CCC[C@H]1C(=O)N[C@H](C(=O)N[C@@H](CC(N)=O)C(=O)N[C@H](C(=O)NCC(=O)N[C@@H](CO)C(=O)N[C@@H](CC(N)=O)C(=O)N[C@H](C(=O)N[C@@H](Cc1ccc(O)cc1)C(N)=O)[C@@H](C)O)C(C)C)[C@@H](C)O [Example 20, N-alpha-[(S)-4-Carboxy-4-(19-carboxynonadecanoylamino)butyryl]-His-His-[His1,Glu14]-pramlintide] ({C20 diacid-γGlu}-HHHCNTATCATQRLAEFLVHSSNNFGPILPPTNVGSNTY-NH2; disulfide 4-9 (inferred); C-terminus assumed) | 0.74 nM | 6 µM (≈ 28.2 µg/mL) | 1 µM (≈ 4.7 µg/mL) | 13 µM (≈ 61.1 µg/mL) | 73 µM (≈ 343 µg/mL) | > 200 µM | > 200 µM | > 200 µM | > 200 µM | 1.7 h | 0.151 nM | – | –
2 | CC[C@H](C)[C@H](NC(=O)[C@@H]1CCCN1C(=O)CNC(=O)[C@H](Cc1ccccc1)NC(=O)[C@H](CC(N)=O)NC(=O)[C@H](CC(N)=O)NC(=O)[C@H](CO)NC(=O)[C@H](CO)NC(=O)[C@H](Cc1c[nH]cn1)NC(=O)[C@@H](NC(=O)[C@H](CC(C)C)NC(=O)[C@H](Cc1ccccc1)NC(=O)[C@H](CCC(=O)O)NC(=O)[C@H](C)NC(=O)[C@H](CC(C)C)NC(=O)[C@H](CCCNC(=N)N)NC(=O)[C@H](CCC(N)=O)NC(=O)[C@@H](NC(=O)[C@H](C)NC(=O)[C@@H]1CSSC[C@H](NC(=O)[C@H](CCCCN)NC(=O)CC[C@H](NC(=O)CCCCCCCCCCCCCCCCCCC(=O)O)C(=O)O)C(=O)N[C@@H](CC(N)=O)C(=O)N[C@@H]([C@@H](C)O)C(=O)N[C@@H](C)C(=O)N[C@@H]([C@@H](C)O)C(=O)N1)[C@@H](C)O)C(C)C)C(=O)N[C@@H](CC(C)C)C(=O)N1CCC[C@H]1C(=O)N1CCC[C@H]1C(=O)N[C@H](C(=O)N[C@@H](CC(N)=O)C(=O)N[C@H](C(=O)NCC(=O)N[C@@H](CO)C(=O)N[C@@H](CC(N)=O)C(=O)N[C@H](C(=O)N1CCC[C@H]1C(N)=O)[C@@H](C)O)C(C)C)[C@@H](C)O [Example 86, N-alpha-[(S)-4-Carboxy-4-(19-carboxynonadecanoylamino)butyryl]-[Glu14,Pro37]-pramlintide] ({C20 diacid-γGlu}-KCNTATCATQRLAEFLVHSSNNFGPILPPTNVGSNTP-NH2; disulfide 2-7 (inferred); C-terminus assumed) | 0.0525 nM | > 200 µM | > 200 µM | > 200 µM | > 200 µM | > 200 µM | > 200 µM | > 200 µM | > 200 µM | 5 h | 0.055 nM | > 200 µM | > 200 µM
3 | CC[C@H](C)[C@H](NC(=O)[C@@H]1CCCN1C(=O)CNC(=O)[C@H](Cc1ccccc1)NC(=O)[C@H](CC(N)=O)NC(=O)[C@H](CC(N)=O)NC(=O)[C@H](CO)NC(=O)[C@H](CO)NC(=O)[C@H](Cc1c[nH]cn1)NC(=O)[C@H](Cc1c[nH]cn1)NC(=O)[C@H](CC(C)C)NC(=O)[C@H](Cc1ccccc1)NC(=O)[C@H](CCC(=O)O)NC(=O)[C@H](C)NC(=O)[C@H](CC(C)C)NC(=O)[C@H](CCCNC(=N)N)NC(=O)[C@H](CCC(N)=O)NC(=O)[C@@H](NC(=O)[C@H](C)NC(=O)[C@@H]1CSSC[C@H](NC(=O)[C@H](CCCCN)NC(=O)[C@H](CCC(=O)O)NC(=O)CC[C@H](NC(=O)CCCCCCCCCCCCCCCCC(=O)O)C(=O)O)C(=O)N[C@@H](CC(N)=O)C(=O)N[C@@H]([C@@H](C)O)C(=O)N[C@@H](C)C(=O)N[C@@H]([C@@H](C)O)C(=O)N1)[C@@H](C)O)C(=O)N[C@@H](CC(C)C)C(=O)N1CCC[C@H]1C(=O)N1CCC[C@H]1C(=O)N[C@H](C(=O)N[C@@H](CC(N)=O)C(=O)N[C@H](C(=O)NCC(=O)N[C@@H](CO)C(=O)N[C@@H](Cc1c[nH]cn1)C(=O)N[C@H](C(=O)N[C@@H](Cc1ccc(O)cc1)C(N)=O)[C@@H](C)O)C(C)C)[C@@H](C)O [Example 60, N-alpha-[(S)-4-Carboxy-4-(17-carboxyheptadecanoylamino)butyryl]-Glu-[Glu14,His17,His35]-pramlintide] ({C18 diacid-γGlu}-EKCNTATCATQRLAEFLHHSSNNFGPILPPTNVGSHTY-NH2; disulfide 3-8) | 0.169 nM | > 200 µM | > 200 µM | > 200 µM | > 200 µM | > 200 µM | > 200 µM | > 200 µM | > 200 µM | 10 h | 0.102 nM | > 200 µM | > 200 µM
4 | CC(C)C[C@H](NC(=O)[C@H](CCCNC(=N)N)NC(=O)[C@H](CCC(N)=O)NC(=O)[C@@H](NC(=O)[C@H](C)NC(=O)[C@@H]1CSSC[C@H](NC(=O)[C@H](CCCCN)NC(=O)CC[C@H](NC(=O)CCCCCCCCCCCCCCCCCCC(=O)O)C(=O)O)C(=O)N[C@@H](CC(N)=O)C(=O)N[C@@H]([C@@H](C)O)C(=O)N[C@@H](C)C(=O)N[C@@H]([C@@H](C)O)C(=O)N1)[C@@H](C)O)C(=O)N[C@@H](C)C(=O)N[C@@H](CCC(=O)O)C(=O)N[C@@H](Cc1ccccc1)C(=O)N[C@@H](CC(C)C)C(=O)N[C@@H](Cc1c[nH]cn1)C(=O)N[C@@H](Cc1c[nH]cn1)C(=O)N[C@@H](CO)C(=O)N[C@@H](CO)C(=O)N[C@@H](CC(N)=O)C(=O)N[C@@H](CC(N)=O)C(=O)N[C@@H](Cc1ccccc1)C(=O)NCC(=O)N[C@@H](C)C(=O)N1CCC[C@H]1C(=O)N[C@@H](CC(C)C)C(=O)N[C@@H](CO)C(=O)N[C@@H](CO)C(=O)N[C@H](C(=O)N[C@@H](CC(N)=O)C(=O)N[C@H](C(=O)NCC(=O)N[C@@H](CO)C(=O)N[C@@H](Cc1c[nH]cn1)C(=O)N[C@H](C(=O)N[C@@H](Cc1ccc(O)cc1)C(N)=O)[C@@H](C)O)C(C)C)[C@@H](C)O [Example 64, N-alpha-[(S)-4-Carboxy-4-(19-carboxynonadecanoylamino)butyryl]-[Glu14,His17,Ala25,Pro26,Ser28,Ser29,His35]-pramlintide] ({C20 diacid-γGlu}-KCNTATCATQRLAEFLHHSSNNFGAPLSSTNVGSHTY-NH2; disulfide 2-7 (inferred)) | 0.0945 nM | > 200 µM | 91 µM (≈ 402 µg/mL) | 136 µM (≈ 601 µg/mL) | > 200 µM | > 200 µM | > 200 µM | > 200 µM | > 200 µM | 6 h | 0.153 nM | 189 µM (≈ 835 µg/mL) | –

From patent US8722849B2, “Polypeptides” (Novo Nordisk A/S, priority 2011, dated 2014)
